Active and inactive are the calls of the source. No cut-off for these calls is given here.
Experiments:
[1] = Cytotoxicity against human melanoma cells after 48 hrs by SRB assay; type: functional; conditions: Melanoma cell
[2] = Cytotoxicity against human ovarian cancer cells after 48 hrs by SRB assay; type: functional; conditions: Cancer cell lines
UACC-62 = assay: Cytotoxicity against human UACC62 cells after 48 hrs by SRB assay; type: functional; conditions: UACC-62, 48 h
SK-MEL-5 [3] = assay: Cytotoxicity against human SK-MEL-5 cells after 48 hrs by SRB assay; type: functional; conditions: SK-MEL-5, 48 h, read-out: LC50 (the source's name)
NCI/ADR-RES = assay: Cytotoxicity against human NCI/ADR-RES cells after 48 hrs by SRB assay; type: functional
U-251 = assay: Cytotoxicity against human U251 cells after 48 hrs by SRB assay; type: functional; conditions: U-251, 48 h
Mus musculus = assay: Antitumor activity in ip dosed athymic nude mouse hollow fiber model assessed as reduction of viable cell mass; type: functional, organism-based
[4] = Cytotoxicity against human colon cancer cells after 48 hrs by SRB assay; type: functional; conditions: Cancer cell lines
TK-10 = assay: Cytotoxicity against human TK10 cells after 48 hrs by SRB assay; type: functional; conditions: TK-10, 48 h
MDA-MB-435 = assay: Cytotoxicity against human MDA-MB-435 cells after 48 hrs by SRB assay; type: functional; conditions: MDA-MB-435, 48 h
OVCAR-4 = assay: Cytotoxicity against human OVCAR4 cells after 48 hrs by SRB assay; type: functional; conditions: OVCAR-4, 48 h
[5] = Cytotoxicity against human renal cancer cells after 48 hrs by SRB assay; type: functional; conditions: Cancer cell lines
OVCAR-5 = assay: Cytotoxicity against human OVCAR5 cells after 48 hrs by SRB assay; type: functional; conditions: OVCAR-5, 48 h
SK-MEL-5 [6] = assay: Cytotoxicity against human SK-MEL-5 cells assessed as cell growth at 10 uM after 48 hrs by SRB assay; type: functional; conditions: SK-MEL-5, 48 h, read-out: Activity
[7] = Cytotoxicity against human prostate cancer cells after 48 hrs by SRB assay; type: functional; conditions: Cancer cell lines
LOX IMVI = assay: Cytotoxicity against human LOXIMVI cells after 48 hrs by SRB assay; type: functional
SW-620 = assay: Cytotoxicity against human SW620 cells after 48 hrs by SRB assay; type: functional; conditions: SW-620, 48 h
NCI-H322M = assay: Cytotoxicity against human NCI-H322M cells after 48 hrs by SRB assay; type: functional
[8] = Toxicity in mouse; type: organism-based; conditions: in vivo
RXF 393 = assay: Cytotoxicity against human RXF393 cells after 48 hrs by SRB assay; type: functional; conditions: RXF 393, 48 h
HCC 2998 = assay: Cytotoxicity against human HCC2998 cells after 48 hrs by SRB assay; type: functional; conditions: HCC 2998, 48 h
PC-3 = assay: Cytotoxicity against human PC3 cells after 48 hrs by SRB assay; type: functional; conditions: PC-3, 48 h
SF-539 = assay: Cytotoxicity against human SF539 cells after 48 hrs by SRB assay; type: functional; conditions: SF-539, 48 h
T47D = assay: Cytotoxicity against human T47D cells after 48 hrs by SRB assay; type: functional
NCI-H522 = assay: Cytotoxicity against human NCI-H522 cells after 48 hrs by SRB assay; type: functional; conditions: NCI-H522, 48 h
HOP-92 = assay: Cytotoxicity against human HOP92 cells after 48 hrs by SRB assay; type: functional; conditions: HOP-92, 48 h
ACHN = assay: Cytotoxicity against human ACHN cells after 48 hrs by SRB assay; type: functional
IGROV-1 = assay: Cytotoxicity against human IGROV1 cells after 48 hrs by SRB assay; type: functional; conditions: IGROV-1, 48 h
SK-MEL-2 = assay: Cytotoxicity against human SK-MEL-2 cells after 48 hrs by SRB assay; type: functional; conditions: SK-MEL-2, 48 h, read-out: LC50 (the source's name)
[9] = Cytotoxicity against human CNS cancer cells after 48 hrs by SRB assay; type: functional; conditions: Cancer cell lines
SR = assay: Cytotoxicity against human SR cells after 48 hrs by SRB assay; type: functional
UACC-257 = assay: Cytotoxicity against human UACC257 cells after 48 hrs by SRB assay; type: functional; conditions: UACC-257, 48 h
SNB-75 = assay: Cytotoxicity against human SNB75 cells after 48 hrs by SRB assay; type: functional; conditions: SNB-75, 48 h
SF-268 = assay: Cytotoxicity against human SF268 cells after 48 hrs by SRB assay; type: functional; conditions: SF-268, 48 h
COLO 205 = assay: Cytotoxicity against human COLO205 cells after 48 hrs by SRB assay; type: functional; conditions: COLO 205, 48 h
KM12 = assay: Cytotoxicity against human KM12 cells after 48 hrs by SRB assay; type: functional; conditions: KM12, 48 h
SN12C = assay: Cytotoxicity against human SN12C cells after 48 hrs by SRB assay; type: functional
[10] = read-out: LC50 (the source's name)

Compound: COc1ccc(C2CC(c3ccc4ccccc4c3)=NN2C2=NC(=O)/C(=C3\C(=O)Nc4ccc(Br)cc43)S2)cc1 (centres undefined)
- GI50 [1]: 69 nM
- TGI [1]: 190 nM
- CC50 [1, 10]: 3520 nM
- GI50 [2]: 110 nM
- LC50 (concentration causing 50% net cell kill) [2]: 18800 nM
- TGI [2]: 850 nM
- GI50 (UACC-62): 54.7 nM
- TGI (UACC-62): 261 nM
- CC50 (UACC-62; [10]): 1190 nM
- CC50 (SK-MEL-5 [3]): 341 nM
- GI50 (NCI/ADR-RES): 675 nM
- TGI (NCI/ADR-RES): > 100000 nM
- CC50 (NCI/ADR-RES; [10]): > 100000 nM
- GI50 (U-251): 24.6 nM
- TGI (U-251): 57.8 nM
- CC50 (U-251; [10]): 289 nM
- Activity (Mus musculus): inactive
- GI50 [4]: 50 nM
- LC50 (concentration lethal to 50% of cells) [4]: 1150 nM
- TGI [4]: 140 nM
- GI50 (TK-10): 170 nM
- TGI (TK-10): 522 nM
- CC50 (TK-10; [10]): > 100000 nM
- GI50 (MDA-MB-435): 31.8 nM
- TGI (MDA-MB-435): 106 nM
- CC50 (MDA-MB-435; [10]): 2440 nM
- GI50 (OVCAR-4): 32.6 nM
- TGI (OVCAR-4): > 111 nM
- CC50 (OVCAR-4; [10]): > 100000 nM
- GI50 [5]: 64 nM
- LC50 [5]: 5190 nM
- TGI [5]: 330 nM
- GI50 (OVCAR-5): 33.6 nM
- TGI (OVCAR-5): 131 nM
- CC50 (OVCAR-5; [10]): 2110 nM
- growth at 10 µM (SK-MEL-5 [6]): -59.8%
- GI50 [7]: 59 nM
- LC50 [7]: 13800 nM
- TGI [7]: 510 nM
- GI50 (LOX IMVI): 24.3 nM
- TGI (LOX IMVI): 58.9 nM
- CC50 (LOX IMVI; [10]): 249 nM
- GI50 (SW-620): 22 nM
- TGI (SW-620): 47.7 nM
- CC50 (SW-620; [10]): 127 nM
- GI50 (NCI-H322M): 36 nM
- TGI (NCI-H322M): 560 nM
- CC50 (NCI-H322M; [10]): > 64100 nM
- MTD [8]: > 400 mg/kg
- GI50 (RXF 393): 19.7 nM
- TGI (RXF 393): 40.3 nM
- CC50 (RXF 393; [10]): 82.2 nM
- GI50 (HCC 2998): 25.2 nM
- TGI (HCC 2998): 65.8 nM
- CC50 (HCC 2998; [10]): 272 nM
- GI50 (PC-3): 26 nM
- TGI (PC-3): 82.7 nM
- CC50 (PC-3; [10]): 5460 nM
- GI50 (SF-539): 23.1 nM
- TGI (SF-539): 54.2 nM
- CC50 (SF-539; [10]): 296 nM
- GI50 (T47D): 23.6 nM
- TGI (T47D): 61 nM
- GI50 (NCI-H522): 124 nM
- TGI (NCI-H522): 288 nM
- GI50 (HOP-92): < 10 nM
- TGI (HOP-92): 24.2 nM
- CC50 (HOP-92; [10]): 1470 nM
- GI50 (ACHN): 26.7 nM
- TGI (ACHN): 64.6 nM
- CC50 (ACHN; [10]): > 32300 nM
- GI50 (IGROV-1): 49.8 nM
- TGI (IGROV-1): 451 nM
- CC50 (IGROV-1; [10]): > 100000 nM
- CC50 (SK-MEL-2): 882 nM
- GI50 [9]: 46 nM
- LC50 (concentration giving 50% net cell kill) [9]: 3420 nM
- TGI [9]: 210 nM
- GI50 (SR): 28.9 nM
- TGI (SR): 130 nM
- CC50 (SR; [10]): > 100000 nM
- GI50 (UACC-257): 51.1 nM
- TGI (UACC-257): 318 nM
- CC50 (UACC-257; [10]): > 100000 nM
- GI50 (SNB-75): 15.9 nM
- TGI (SNB-75): 34.3 nM
- CC50 (SNB-75; [10]): > 69.8 nM
- GI50 (SF-268): 36.5 nM
- TGI (SF-268): 222 nM
- CC50 (SF-268; [10]): 9630 nM
- GI50 (COLO 205): 21 nM
- TGI (COLO 205): 42 nM
- CC50 (COLO 205; [10]): > 84.1 nM
- GI50 (KM12): 23.1 nM
- TGI (KM12): 53.5 nM
- CC50 (KM12; [10]): 231 nM
- GI50 (SN12C): 43.4 nM
- TGI (SN12C): 223 nM
- CC50 (SN12C; [10]): 1700 nM
